This note sets out measurements from ChEMBL document CHEMBL2040787, “Synthesis and carbonic anhydrase inhibitory properties of novel bromophenols and their derivatives including natural products: vidalol B” (Eur J Med Chem, 2012).

One assay deals with Carbonic anhydrase 4 (Homo sapiens, UniProt P22748). In words: Inhibition of human CA4 using 4NPA as substrate for 3 mins by Lineweaver burk plot analysis.
The target in the next assay is Carbonic anhydrase 6 (Homo sapiens, UniProt P23280). In words: Inhibition of human CA6 using 4NPA as substrate for 3 mins by Lineweaver burk plot analysis.
For another assay, the target named is Carbonic anhydrase 1 (Homo sapiens, UniProt P00915). As to the kind of experiment: Noncompetitive inhibition of human CA1 using 4NPA as substrate for 3 mins by Lineweaver burk plot analysis.
The next assay has as its target Carbonic anhydrase 2 (Homo sapiens, UniProt P00918). As to the kind of experiment: Inhibition of human CA2 using 4NPA as substrate for 3 mins by Lineweaver burk plot analysis.

Usually Ki stands for the equilibrium dissociation constant of an inhibitor or competing ligand from its target. A higher Ki goes with a looser hold on the target.

Carbonic anhydrase 4, sequence (P22748 whole entry): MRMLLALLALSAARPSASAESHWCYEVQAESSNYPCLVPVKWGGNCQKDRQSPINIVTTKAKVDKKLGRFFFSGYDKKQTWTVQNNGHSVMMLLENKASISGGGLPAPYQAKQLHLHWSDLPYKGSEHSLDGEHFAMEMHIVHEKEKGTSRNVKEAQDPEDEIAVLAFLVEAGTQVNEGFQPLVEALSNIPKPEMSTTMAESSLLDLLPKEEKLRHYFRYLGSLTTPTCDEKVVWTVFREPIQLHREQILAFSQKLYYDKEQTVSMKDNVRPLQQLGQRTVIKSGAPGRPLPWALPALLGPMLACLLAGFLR
Carbonic anhydrase 6, sequence (P23280 whole entry): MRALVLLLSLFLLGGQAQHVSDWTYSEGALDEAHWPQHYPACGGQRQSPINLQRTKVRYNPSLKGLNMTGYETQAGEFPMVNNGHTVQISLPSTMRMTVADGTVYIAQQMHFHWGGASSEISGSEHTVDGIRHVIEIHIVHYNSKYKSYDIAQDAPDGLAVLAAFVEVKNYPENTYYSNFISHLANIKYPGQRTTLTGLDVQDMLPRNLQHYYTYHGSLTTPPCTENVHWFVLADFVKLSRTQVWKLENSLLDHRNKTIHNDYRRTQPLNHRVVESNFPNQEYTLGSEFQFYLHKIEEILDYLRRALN
Carbonic anhydrase 1, sequence (P00915 whole entry): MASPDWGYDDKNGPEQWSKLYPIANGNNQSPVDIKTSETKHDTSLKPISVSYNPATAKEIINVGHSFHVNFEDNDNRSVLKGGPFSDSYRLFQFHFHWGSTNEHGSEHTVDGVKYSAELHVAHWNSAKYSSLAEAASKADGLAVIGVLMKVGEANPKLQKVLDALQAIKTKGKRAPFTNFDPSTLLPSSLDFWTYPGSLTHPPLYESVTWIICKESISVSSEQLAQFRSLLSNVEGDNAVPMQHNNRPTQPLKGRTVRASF

Consider `O=C(O)c1ccc(O)c(O)c1` [PROTOCATECHUIC ACID], for which the affinity on Carbonic anhydrase 4, expressed as Ki, was 2.45 µM.

As for `COc1ccc(C(=O)O)cc1OC` [VERATRIC ACID], the inhibitory constant (Ki) on Carbonic anhydrase 4 is 6.48 µM; at Carbonic anhydrase 6 it was 24.4 µM.

In the case of `Oc1ccc(Cc2ccc(O)c(O)c2)cc1O`, the Ki at Carbonic anhydrase 4 was 7.64 µM; on Carbonic anhydrase 6, 13.7 µM; on Carbonic anhydrase 1, 18.4 µM; at Carbonic anhydrase 2, 5.64 µM.

For `COc1c(Br)c(Br)c(Cc2c(Br)c(Br)c(OC)c(OC)c2Br)c(Br)c1OC`, the inhibition constant Ki on Carbonic anhydrase 4 was determined as 32.7 µM; on Carbonic anhydrase 6 it was 29.7 µM; on Carbonic anhydrase 1, 43.5 µM; at Carbonic anhydrase 2 it was 35.5 µM.

As for `COc1ccc(Cc2ccc(OC)c(OC)c2)cc1OC`, the Ki was found to be 145 µM on Carbonic anhydrase 4, 382 µM at Carbonic anhydrase 6, 537 µM at Carbonic anhydrase 1 and 59.1 µM at Carbonic anhydrase 2.

In the case of `COc1ccccc1` [ANISOLE], the Ki on Carbonic anhydrase 6 came out at 235 µM.
